In ChEMBL document CHEMBL3046391, “Acute toxicity and sublethal effects of methoxyfenozide and thiodicarb on survival, development and reproduction of Helicoverpa armigera (Lepidoptera: Noctuidae)” (2013):
Values after ≈ are worked out from the molar mass of the structure shown.

Columns and labels:
Type in all cases: functional
Helicoverpa armigera [1] = experiment: Insecticidal activity against Helicoverpa armigera fed with artificial diet containing compound assessed as mortality at LC30 concentration measured at 24 hr intervals beginning at 24 hr after initial drug exposure
Helicoverpa armigera [2] = experiment: Insecticidal activity against Helicoverpa armigera pupae assessed as increase in pupal development time at LC30 concentration treated during third-instar larval stage for 24 hr
Helicoverpa armigera [3] = experiment: Insecticidal activity against third-instar larval stage of Helicoverpa armigera fed with artificial diet containing compound assessed as mortality at LC30 concentration measured at 24 hr intervals beginning at 24 hr after initial drug exposure
Helicoverpa armigera [4] = experiment: Insecticidal activity against Helicoverpa armigera adults emerged from compound-treated third-instar larval stage assessed as decrease in longevity rate at LC30 concentration; parameters: scale not given: the % may be the effect or the level left
Helicoverpa armigera [5] = experiment: Insecticidal activity against Helicoverpa armigera assessed as pupal weight at LC30 concentration treated during third-instar larval stage for 24 hr (reference value: 311 +/-9 mg)
Helicoverpa armigera [6] = experiment: Insecticidal activity against third-instar larval stage of Helicoverpa armigera fed with artificial diet containing compound assessed as mortality measured at 24 hr intervals beginning at 24 hr after initial drug exposure; conditions: for LC50: Helicoverpa armigera, Instar larval stage, 24 h
Helicoverpa armigera [7] = experiment: Insecticidal activity against third-instar larval stage of Helicoverpa armigera fed with artificial diet containing compound assessed as increase in larval development time at LC30 concentration incubated for 24 hr
Helicoverpa armigera [8] = experiment: Insecticidal activity against Helicoverpa armigera adults emerged from compound-treated third-instar larval stage assessed as decrease in fecundity rate at LC30 concentration; parameters: scale not given: the % may be the effect or the level left

Row | SMILES | mortality (Helicoverpa armigera [1]) | Time (Helicoverpa armigera [2]) | mortality (Helicoverpa armigera [3]) | Activity (Helicoverpa armigera [4]) | Activity (Helicoverpa armigera [5]) | LC30 (Helicoverpa armigera [6]) | LC90 (Helicoverpa armigera [6]) | LC50 (Helicoverpa armigera [6]) | Time (Helicoverpa armigera [7]) | Activity (Helicoverpa armigera [8])
1 | COc1cccc(C(=O)NN(C(=O)c2cc(C)cc(C)c2)C(C)(C)C)c1C [METHOXYFENOZIDE] | 32% | 2.3 days | 32% | 27.5% | 253 mg | 148 ppm | 560 ppm | 218 µg/mL (≈ 592 µM) | 2.1 days | 35%
2 | CS/C(C)=N\OC(=O)N(C)SN(C)C(=O)O/N=C(\C)SC [THIODICARB] | 20% | 0.5 days | 20% | 23% | 294 mg | 550 ppm | 1987 ppm | 798 µg/mL (≈ 2250 µM) | 5.3 days | 30%
